Experimental data reported in publication PMC10692721, “Drug discovery for heart failure targeting myosin-binding protein C” (The Journal of Biological Chemistry, 2023).

Tests used:
[1] = system: TMR-cC0-C2 (C0-C2 fragment of human cMyBP-C); experiment: FLT-TMR concentration-response assay (FLT of TMR on cC0-C2, no actin); format: binding; conditions: concentration-response, no actin
Procedure: Compounds identified as initial hits were further examined to determine the concentration–response curves for seven conditions ([1]): FMAL-actin alone identified actin-binding compounds that alter the FLT of FMAL-actin ([2]).
(§1) Fluorescence lifetime (FLT) measurements were acquired using a high-throughput FLT plate reader (Fluorescence Innovations, Inc) ([14], [27]), provided by Photonic Pharma LLC. […] The observed waveforms were analyzed as described previously ([15], [28]).
The primary hits were dissolved in DMSO to make a 10 mM stock solution, which was serially diluted in 96-well mother plates. Hits were screened at eight concentrations (0.5–100 μM). […] Compounds (1 μl) were transferred from the mother plates into 384-well plates using a Mosquito HV liquid handler (TTP Labtech Ltd, Hertfordshire, UK). The same procedure of dispensing as for the pilot screening was applied in the concentration-response assays. Concentration dependence of the FLT-FRET (E/EDMSO) or FLT-TMR (Δτ) change data was fit to a Hill equation only under certain conditions to help guide the eye (Fig. 4).

[2] = system: FMAL-actin plus TMR-cC0-C2; experiment: Selleck library HTS, 473 nm excitation (FLT of FMAL-actin with TMR-cC0-C2, FLT-FRET); format: binding, human; conditions: for 473-nm Δτ, Repeat 1 / 473-nm Δτ, Repeat 2: initial screen, 30 μM compound; for 473-nm z-score (based on avg Δτ): robust z-score, hit threshold ±4, 30 μM compound
Procedure: as §1
(§2) In total, 50 nl of each solution was dispensed in DMSO using an automated Echo 550 acoustic liquid dispenser (Labcyte). Compounds were formatted into the assay plates, at a final concentration of 30 μM, with the first two and second to last columns loaded with DMSO only (compound-free controls). In the final column, 30 μM of suramin was loaded as a positive control (tool compound). These assay plates were then heat-sealed using a PlateLoc Thermal Microplate Sealer (Agilent Technologies) and stored at −20 °C. Before screening, compound plates were equilibrated to room temperature (∼25 °C). […] Plates were incubated at room temperature for 60 min before recording the data with the fluorescence lifetime plate reader.
After fitting the waveforms with a single exponential decay to quantify donor FLT, the change in FLT (Δτ) was computed by performing a moving median subtraction in the order the plate was scanned with a window size of half a plate row […]. The reasons for this are twofold. Firstly, plate gradients are often observed due to the heating of the digitizer during acquisition.
To account for the necessity to correct for plate gradients in the computation of E, the median τDMSO prior to the application of the moving median correction was added to each well’s Δτ value to recover a rescaled value of τ.

TMR-cC0-C2 = experiment: Selleck library HTS, 532 nm excitation (FLT of TMR-cC0-C2 in presence of FMAL-actin); format: binding, human; conditions: for 532-nm Δτ, Repeat 1 / 532-nm Δτ, Repeat 2: initial screen, 30 μM compound; for 532-nm z-score (based on avg Δτ): robust z-score, hit threshold ±4, 30 μM compound
Procedure: as §1, §2
Hits that exceeded the z-score hit criteria in the donor-only screen were excluded from consideration. To remove compounds with confounding fluorescence properties, a similarity index (SI, specifically the cosine distance, Equation 5) was computed using data from the SUPR instrument by comparing a region (500–540 nm) of the donor-only spectrum (I^(a)) for each well to that of the plate-wide average DMSO spectrum (I^(b)) in the same wavelength band ([29]). Compounds that exceeded an SI robust z-score of 4 were deemed likely fluorescent compounds and removed from consideration.(5) SI=1−∑Ii(a).Ii(b)/∑Ii(a).Ii(a)∑Ii(b).Ii(b)

Compound | effect on FLT of TMR-cC0-C2 (in words) [1] | 473-nm Δτ, Repeat 1 [2] [ns] | 473-nm Δτ, Repeat 2 [2] [ns] | 473-nm z-score (based on avg Δτ) [2] | effect on FLT of TMR-cC0-C2 in the initial screen (in words) (TMR-cC0-C2; both replicates, actin present) | 532-nm Δτ, Repeat 1 (TMR-cC0-C2) [ns] | 532-nm Δτ, Repeat 2 (TMR-cC0-C2) [ns] | 532-nm z-score (based on avg Δτ) (TMR-cC0-C2)
Oc1cccc2cccnc12 [8-Hydroxyquinoline] | did not | -0.025 | -0.188 | -5.91 | strongly reduced | -0.167 | -0.285 | -13.76
CO[C@@]1(NC(=O)C(C(=O)O)c2ccc(O)cc2)C(=O)N2C(C(=O)O)=C(CSc3nnnn3C)CO[C@@H]21 (some centres unmarked) [Latamoxef sodium] | – | 0.128 | 0.049 | 4.99 | – | -0.050 | -0.037 | -2.62
CC1(C)[C@@H](O[C@H]2O[C@H](C(=O)O)[C@@H](O)[C@H](O)[C@H]2O[C@@H]2O[C@H](C(=O)O)[C@@H](O)[C@H](O)[C@H]2O)CC[C@]2(C)[C@H]3C(=O)C=C4[C@@H]5C[C@@](C)(C(=O)O)CC[C@]5(C)CC[C@@]4(C)[C@]3(C)CC[C@@H]12.N.N [Diammonium glycyrrhizinate] | – | 0.077 | 0.080 | 4.42 | – | 0.022 | 0.017 | 1.22
O=C(c1ccc(OCCN2CCCCC2)cc1)c1c(-c2ccc(O)cc2)sc2cc(O)ccc12 [Raloxifene] | – | -0.490 | -0.307 | -22.27 | – | -0.025 | -0.147 | -5.22
COc1ccc(CN(CCN(C)C)c2ncccn2)cc1 [Thonzylamine] | – | 0.012 | -0.449 | -12.17 | – | -0.034 | -0.382 | -12.66
CONC(=O)Nc1ccc(-c2sc3c(c2CN(C)C)c(=O)n(-c2ccc(OC)nn2)c(=O)n3Cc2c(F)cccc2F)cc1 [Relugolix] | – | 0.366 | -0.004 | 10.15 | – | -0.169 | -0.015 | -5.58
Heparin sodium | – | 0.440 | 0.363 | 22.49 | – | -0.052 | -0.051 | -3.09
CCC(=O)c1c(O)cc(O)cc1O [Flopropione] | – | -0.335 | -0.210 | -15.21 | – | -0.062 | -0.073 | -4.10
CN1CCCN=C1/C=C/c1cccs1 [Pyrantel pamoate] | – | 0.313 | 0.250 | 15.79 | – | -0.043 | -0.100 | -4.32
C[n+]1cc2c3c(ccc2c2ccc4cc5c(cc4c21)OCO5)OCO3 [Sanguinarine chloride] | – | -0.105 | -0.086 | -5.31 | – | -0.160 | -0.020 | -5.46
Nc1ccc2cc3ccc(N)cc3nc2c1 [Proflavine hemisulfate] | – | 0.430 | 0.337 | 21.48 | – | -0.016 | -0.080 | -2.91
C[C@H](CCC(=O)O)[C@H]1CC[C@H]2[C@@H]3C[C@H](O)[C@@H]4C[C@H](O)CC[C@]4(C)[C@H]3CC[C@]12C [Hyodeoxycholic acid (HDCA), Hyodeoxycholic acid] | – | 0.111 | 0.072 | 5.17 | – | -0.021 | -0.120 | -4.27
Cc1ccc(NC(=O)c2ccc(CN3CCN(C)CC3)cc2)cc1Nc1nc(-c2cccnc2)cs1 [Masitinib (AB1010), Masitinib] | – | -0.336 | -0.197 | -14.87 | – | -0.071 | -0.082 | -4.66
C=CC1=C(C)c2cc3[nH]c(cc4nc(cc5[nH]c(cc1n2)c(C)c5CCC(=O)O)C(CCC(=O)O)=C4C)c(C)c3C=C [Protoporphyrin IX] | – | 0.144 | 0.076 | 6.21 | – | 0.067 | 0.016 | 2.58
CC1(C)S[C@@H]2[C@H](NC(=O)[C@H](N)c3ccccc3)C(=O)N2[C@H]1C(=O)O [Ampicillin sodium] | – | 0.184 | 0.161 | 9.70 | – | 0.003 | 0.007 | 0.34
CC1=NN(c2ccc(C)c(C)c2)C(=O)/C1=N\Nc1cccc(-c2cccc(C(=O)O)c2)c1O [Eltrombopag olamine] | – | 0.270 | 0.162 | 12.13 | – | -0.267 | -0.418 | -20.87
CNC(=O)c1cc(Oc2ccc(NC(=O)Nc3ccc(Cl)c(C(F)(F)F)c3)c(F)c2)ccn1 [Regorafenib (BAY 73-4506), Regorafenib] | – | -0.029 | -0.026 | -1.50 | – | 0.099 | 0.102 | 6.17
COc1cc2nc(N3CCN(C(=O)C4COc5ccccc5O4)CC3)nc(N)c2cc1OC (centres unmarked) [Doxazosin] | – | -0.266 | -0.231 | -13.87 | – | 0.125 | 0.126 | 7.70
O=C(O)c1cc(/N=N/c2ccc(O)c(C(=O)O)c2)ccc1O [Olsalazine Sodium] | – | 0.202 | 0.096 | 8.38 | – | -0.057 | -0.123 | -5.46
CCOC(=O)[C@@H](N)Cc1ccc(-c2cc(O[C@H](c3ccc(Cl)cc3-n3ccc(C)n3)C(F)(F)F)nc(N)n2)cc1 [Telotristat etiprate (LX 1606 Hippurate), Telotristat etiprate] | – | -0.136 | -0.122 | -7.19 | – | 0.064 | 0.093 | 4.83
O=c1cc(-c2ccc(O)c(O)c2)oc2cc(O)cc(O)c12 [Luteolin] | – | -0.309 | -0.214 | -14.58 | – | -0.277 | -0.302 | -17.63
CN(C)[C@@H]1C(O)=C(C(N)=O)C(=O)[C@@]2(O)C(O)=C3C(=O)c4c(O)cccc4[C@@](C)(O)[C@H]3[C@H](O)[C@@H]12 [Oxytetracycline (Terramycin), Oxytetracycline] | – | 0.175 | 0.122 | 8.34 | – | -0.019 | -0.057 | -2.29
